# In ChEMBL document CHEMBL5696439 (Cancer Res, 2010):
# Calls of active or inactive are those of the source. No cut-off for these calls is given here.
# Key:
# [1] = biological target: Ephrin type-B receptor 2 (Homo sapiens) (UniProt P29323); experiment: Inhibition of recombinant human GST-tagged EPHB2 (616-884 residues) expressed in insect cells at 2 uM using Tyr 02 as substrate measured after 1 hr by Z'-LYTE assay relative to control; conditions: Insect cell
# [2] = biological target: Aurora kinase B (Homo sapiens) (UniProt Q96GD4); experiment: Inhibition of recombinant human full-length His-tagged AURKB expressed in insect cells at 2 uM using Ser/Thr 01 as substrate measured after 1 hr by Z'-LYTE assay relative to control; conditions: Insect cell
# [3] = biological target: Tyrosine-protein kinase ABL2 (Homo sapiens) (UniProt P42684); experiment: Inhibition of recombinant human full-length His-tagged ABL2 expressed in insect cells at 2 uM using Tyr 02 as substrate measured after 1 hr by Z'-LYTE assay relative to control; conditions: Insect cell
# MDA-MB-361 = experiment: Antitumor activity against human MDA-MB-361 cells assessed as reduction in oxygen consumption rate at 1 micromol/L incubated for 1 hrs relative to control; type: functional; set-up: scale not given: the % may be the effect or the level left; conditions: dose 1 µmol/L, at 1 µM
# mTORC2 (Homo sapiens) [4] = biological target: T1, mTORC2 (Homo sapiens) (UniProt P42345+Q6R327+Q9BVC4+Q9BPZ7); conditions: U-87 MG, dose 0.025-2 µmol/L, time 6.0 hrs
# [5] = test system: Platelet-derived growth factor receptor alpha (Homo sapiens), P16234 [V561D]; experiment: Inhibition of recombinant human GST-tagged PDGFRA V561D mutant (550-1089 residues) expressed in insect cells at 2 uM using Tyr 04 as substrate measured after 1 hr by Z'-LYTE assay relative to control; conditions: Insect cell
# [6] = biological target: 3-phosphoinositide-dependent protein kinase 1 (Homo sapiens) (UniProt O15530); experiment: Inhibition of recombinant human full length His-tagged PDK1 expressed in baculovirus expression system at 2 uM using Ser/Thr 06 as substrate measured after 1 hr by Z'-LYTE assay relative to control
# [7] = biological target: Serine/threonine-protein kinase 26 (Homo sapiens) (UniProt Q9P289); experiment: Inhibition of recombinant human full length GST-tagged MST4 expressed in insect cells at 2 uM using Ser/Thr 07 as substrate measured after 1 hr by Z'-LYTE assay relative to control; conditions: Insect cell
# [8] = biological target: Casein kinase I isoform epsilon (Homo sapiens) (UniProt P49674); experiment: Inhibition of recombinant human full-length His-tagged CSNK1E expressed in insect cells at 2 uM using Ser/Thr 11 as substrate measured after 1 hr by Z'-LYTE assay relative to control; conditions: Insect cell
# [9] = biological target: MAP kinase-activated protein kinase 3 (Homo sapiens) (UniProt Q16644); experiment: Inhibition of recombinant human full length His-tagged MAPKAPK3 expressed in baculovirus expression system at 2 uM using Ser/Thr 04 as substrate measured after 1 hr by Z'-LYTE assay relative to control
# [10] = biological target: Tyrosine-protein kinase BTK (Homo sapiens) (UniProt Q06187); experiment: Inhibition of recombinant human full-length His-tagged BTK expressed in insect cells at 2 uM using Tyr 01 as substrate measured after 1 hr by Z'-LYTE assay relative to control; conditions: Insect cell
# [11] = biological target: Calcium/calmodulin-dependent protein kinase type 1D (Homo sapiens) (UniProt Q8IU85); experiment: Inhibition of recombinant human full-length His-tagged CAMK1D expressed in insect cells at 2 uM using Ser/Thr 25 as substrate measured after 1 hr by Z'-LYTE assay relative to control; conditions: Insect cell
# [12] = biological target: Tyrosine-protein kinase Mer (Homo sapiens) (UniProt Q12866); experiment: Inhibition of recombinant human GST-tagged MERTK (578-872 residues) expressed in insect cells at 2 uM using Tyr 02 as substrate measured after 1 hr by Z'-LYTE assay relative to control; conditions: Insect cell
# [13] = biological target: Tyrosine-protein kinase Srms (Homo sapiens) (UniProt Q9H3Y6); experiment: Inhibition of recombinant human full length GST-tagged SRMS expressed in insect cells at 2 uM using Tyr 01 as substrate measured after 1 hr by Z'-LYTE assay relative to control; conditions: Insect cell
# [14] = biological target: Serine/threonine-protein kinase Chk2 (Homo sapiens) (UniProt O96017); experiment: Inhibition of recombinant human full-length His-tagged CHEK2 expressed in baculovirus expression system at 2 uM using Ser/Thr 07 as substrate measured after 1 hr by Z'-LYTE assay relative to control
# Rat1 = experiment: Inhibition of mTORC2 in rat Rat1 cells assessed as AKT phosphorylation at S473 level preincubated for 1 hrs in the presence of IGF-1 stimulation by immunoblot assay; type: cell-based; conditions: dose 0.01-2 µmol/L
# A549 = experiment: Antiproliferative activity against human A549 cells assessed as cell growth inhibition incubated for 24 hrs by MTS assay; type: functional, cell-based; conditions: A549, 24 h
# U-87 MG = experiment: Antitumor activity against human U-87MG cells assessed as lactate production incubated for 24 hrs; type: functional, cell-based; conditions: U-87MG ATCC, dose 0.01-10 µmol/L
# A498 = experiment: Antitumor activity against human A498 cells xenografted in female nude mouse model assessed as tumor regression at 50 mg/kg, po qd administered as 5 days on/2 days off regimen for 4 cycles; type: functional, organism-based; conditions: time 28.0 day
# mTORC2 (Homo sapiens) [15] = biological target: T1, mTORC2 (Homo sapiens); conditions: U-87 MG, dose 0.025-2 µmol/L, time 6.0 hrs; remark: listed apart in the source
# [16] = biological target: Rho-associated protein kinase 1 (Homo sapiens) (UniProt Q13464); experiment: Inhibition of recombinant human GST-tagged ROCK1 (1-535 residues) expressed in insect cells at 2 uM using Ser/Thr 07 as substrate measured after 1 hr by Z'-LYTE assay relative to control; conditions: Insect cell
# [17] = biological target: Misshapen-like kinase 1 (Homo sapiens) (UniProt Q8N4C8); experiment: Inhibition of recombinant human GST-tagged MINK1 (1-320 residues) expressed in insect cells at 2 uM using Ser/Thr 07 as substrate measured after 1 hr by Z'-LYTE assay relative to control; conditions: Insect cell
# [18] = biological target: Homeodomain-interacting protein kinase 4 (Homo sapiens) (UniProt Q8NE63); experiment: Inhibition of recombinant human full-length GST-tagged HIPK4 expressed in insect cells at 2 uM using Ser/Thr 18 as substrate measured after 1 hr by Z'-LYTE assay relative to control; conditions: Insect cell
# [19] = test system: Platelet-derived growth factor receptor alpha (Homo sapiens), P16234 [D842V]; experiment: Inhibition of recombinant human GST-tagged PDGFRA D842V mutant (550-1089 residues) expressed in baculovirus expression system at 2 uM using Tyr 04 as substrate measured after 1 hr by Z'-LYTE assay relative to control
# NCI-H157 = experiment: Antiproliferative activity against human NCI-H157 cells assessed as cell growth inhibition incubated for 24 hrs by MTS assay; type: functional, cell-based; conditions: NCI-H157, 24 h
# [20] = biological target: Mitogen-activated protein kinase kinase kinase 8 (Homo sapiens) (UniProt P41279); experiment: Inhibition of recombinant human GST-tagged MAP3K8 (30-397 residues) expressed in insect cells at 2 uM using Ser/Thr 03 as substrate measured after 1 hr by Z'-LYTE assay relative to control; conditions: Insect cell
# Chain of Mitogen-activated protein kinase kinase kinase 8 (Homo sapiens) (P41279 whole entry, the tested form may be a part): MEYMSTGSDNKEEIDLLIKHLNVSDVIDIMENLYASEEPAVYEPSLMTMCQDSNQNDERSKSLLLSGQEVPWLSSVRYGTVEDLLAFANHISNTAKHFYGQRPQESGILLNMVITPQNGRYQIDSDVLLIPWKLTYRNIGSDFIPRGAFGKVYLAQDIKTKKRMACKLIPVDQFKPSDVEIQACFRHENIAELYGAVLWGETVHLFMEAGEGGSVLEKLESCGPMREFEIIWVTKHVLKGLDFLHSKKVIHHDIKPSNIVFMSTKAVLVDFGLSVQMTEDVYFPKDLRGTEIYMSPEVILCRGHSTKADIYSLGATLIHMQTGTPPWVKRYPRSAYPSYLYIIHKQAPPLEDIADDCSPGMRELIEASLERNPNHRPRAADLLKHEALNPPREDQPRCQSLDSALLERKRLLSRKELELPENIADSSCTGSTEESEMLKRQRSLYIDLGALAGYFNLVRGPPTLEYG
# Chain of 3-phosphoinositide-dependent protein kinase 1 (Homo sapiens) (O15530 whole entry, looked up): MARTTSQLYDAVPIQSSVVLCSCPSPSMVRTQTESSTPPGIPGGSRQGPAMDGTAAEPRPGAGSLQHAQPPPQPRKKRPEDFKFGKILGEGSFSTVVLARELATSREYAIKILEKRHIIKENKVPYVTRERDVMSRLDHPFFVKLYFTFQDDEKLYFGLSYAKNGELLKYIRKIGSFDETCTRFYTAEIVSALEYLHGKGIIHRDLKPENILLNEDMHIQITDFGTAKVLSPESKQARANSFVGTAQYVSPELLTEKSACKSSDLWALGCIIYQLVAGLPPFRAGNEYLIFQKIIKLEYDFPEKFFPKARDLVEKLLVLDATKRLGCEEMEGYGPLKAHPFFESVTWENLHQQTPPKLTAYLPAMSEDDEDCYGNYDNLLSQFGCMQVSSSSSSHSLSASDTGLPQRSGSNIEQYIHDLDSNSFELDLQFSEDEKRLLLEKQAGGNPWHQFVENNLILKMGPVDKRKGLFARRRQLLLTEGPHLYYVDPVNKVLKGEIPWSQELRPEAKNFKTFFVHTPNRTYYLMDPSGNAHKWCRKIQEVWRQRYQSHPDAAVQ
# Chain of Calcium/calmodulin-dependent protein kinase type 1D (Homo sapiens) (Q8IU85 whole entry, looked up, the tested form may be a part): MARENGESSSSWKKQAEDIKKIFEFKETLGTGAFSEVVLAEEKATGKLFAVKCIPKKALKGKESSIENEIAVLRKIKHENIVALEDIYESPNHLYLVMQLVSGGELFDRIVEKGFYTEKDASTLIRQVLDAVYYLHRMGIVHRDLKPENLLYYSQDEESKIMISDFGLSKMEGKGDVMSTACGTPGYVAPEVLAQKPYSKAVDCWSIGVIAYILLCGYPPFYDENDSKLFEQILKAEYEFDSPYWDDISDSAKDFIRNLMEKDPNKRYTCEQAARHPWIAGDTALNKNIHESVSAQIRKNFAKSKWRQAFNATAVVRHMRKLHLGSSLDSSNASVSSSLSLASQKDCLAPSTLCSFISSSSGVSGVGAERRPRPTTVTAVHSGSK
# Chain of Platelet-derived growth factor receptor alpha (Homo sapiens), P16234 [V561D] (P16234 whole entry V561D, the tested form may be a part): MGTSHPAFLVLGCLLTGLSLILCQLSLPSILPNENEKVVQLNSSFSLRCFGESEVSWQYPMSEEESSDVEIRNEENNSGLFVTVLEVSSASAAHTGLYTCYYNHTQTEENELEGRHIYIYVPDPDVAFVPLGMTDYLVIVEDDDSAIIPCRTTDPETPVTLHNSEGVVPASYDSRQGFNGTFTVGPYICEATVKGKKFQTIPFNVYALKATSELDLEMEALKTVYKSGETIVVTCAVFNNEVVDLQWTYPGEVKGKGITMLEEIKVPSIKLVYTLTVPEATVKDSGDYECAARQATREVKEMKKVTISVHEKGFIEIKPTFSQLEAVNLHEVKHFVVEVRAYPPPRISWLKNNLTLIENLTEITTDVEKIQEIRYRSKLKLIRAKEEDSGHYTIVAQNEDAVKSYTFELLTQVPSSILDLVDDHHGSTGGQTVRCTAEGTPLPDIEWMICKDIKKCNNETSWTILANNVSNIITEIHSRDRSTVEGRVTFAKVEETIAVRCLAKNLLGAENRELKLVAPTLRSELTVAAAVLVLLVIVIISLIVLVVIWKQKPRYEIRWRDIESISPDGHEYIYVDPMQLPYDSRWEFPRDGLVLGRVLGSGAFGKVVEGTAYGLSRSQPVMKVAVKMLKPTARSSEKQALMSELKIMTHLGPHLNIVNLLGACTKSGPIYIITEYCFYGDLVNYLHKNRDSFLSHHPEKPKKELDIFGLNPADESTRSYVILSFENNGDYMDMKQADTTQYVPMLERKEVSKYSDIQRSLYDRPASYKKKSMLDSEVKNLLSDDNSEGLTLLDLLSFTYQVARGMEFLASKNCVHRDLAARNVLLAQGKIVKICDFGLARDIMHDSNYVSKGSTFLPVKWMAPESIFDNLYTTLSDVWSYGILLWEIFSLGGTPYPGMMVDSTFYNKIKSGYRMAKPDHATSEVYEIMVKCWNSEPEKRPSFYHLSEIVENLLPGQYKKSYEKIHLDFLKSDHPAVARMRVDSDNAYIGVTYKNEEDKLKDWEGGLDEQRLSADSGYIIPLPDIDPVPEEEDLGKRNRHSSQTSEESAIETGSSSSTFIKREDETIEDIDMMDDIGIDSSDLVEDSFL
# Chain of Rho-associated protein kinase 1 (Homo sapiens) (Q13464 2-1354 limits assumed): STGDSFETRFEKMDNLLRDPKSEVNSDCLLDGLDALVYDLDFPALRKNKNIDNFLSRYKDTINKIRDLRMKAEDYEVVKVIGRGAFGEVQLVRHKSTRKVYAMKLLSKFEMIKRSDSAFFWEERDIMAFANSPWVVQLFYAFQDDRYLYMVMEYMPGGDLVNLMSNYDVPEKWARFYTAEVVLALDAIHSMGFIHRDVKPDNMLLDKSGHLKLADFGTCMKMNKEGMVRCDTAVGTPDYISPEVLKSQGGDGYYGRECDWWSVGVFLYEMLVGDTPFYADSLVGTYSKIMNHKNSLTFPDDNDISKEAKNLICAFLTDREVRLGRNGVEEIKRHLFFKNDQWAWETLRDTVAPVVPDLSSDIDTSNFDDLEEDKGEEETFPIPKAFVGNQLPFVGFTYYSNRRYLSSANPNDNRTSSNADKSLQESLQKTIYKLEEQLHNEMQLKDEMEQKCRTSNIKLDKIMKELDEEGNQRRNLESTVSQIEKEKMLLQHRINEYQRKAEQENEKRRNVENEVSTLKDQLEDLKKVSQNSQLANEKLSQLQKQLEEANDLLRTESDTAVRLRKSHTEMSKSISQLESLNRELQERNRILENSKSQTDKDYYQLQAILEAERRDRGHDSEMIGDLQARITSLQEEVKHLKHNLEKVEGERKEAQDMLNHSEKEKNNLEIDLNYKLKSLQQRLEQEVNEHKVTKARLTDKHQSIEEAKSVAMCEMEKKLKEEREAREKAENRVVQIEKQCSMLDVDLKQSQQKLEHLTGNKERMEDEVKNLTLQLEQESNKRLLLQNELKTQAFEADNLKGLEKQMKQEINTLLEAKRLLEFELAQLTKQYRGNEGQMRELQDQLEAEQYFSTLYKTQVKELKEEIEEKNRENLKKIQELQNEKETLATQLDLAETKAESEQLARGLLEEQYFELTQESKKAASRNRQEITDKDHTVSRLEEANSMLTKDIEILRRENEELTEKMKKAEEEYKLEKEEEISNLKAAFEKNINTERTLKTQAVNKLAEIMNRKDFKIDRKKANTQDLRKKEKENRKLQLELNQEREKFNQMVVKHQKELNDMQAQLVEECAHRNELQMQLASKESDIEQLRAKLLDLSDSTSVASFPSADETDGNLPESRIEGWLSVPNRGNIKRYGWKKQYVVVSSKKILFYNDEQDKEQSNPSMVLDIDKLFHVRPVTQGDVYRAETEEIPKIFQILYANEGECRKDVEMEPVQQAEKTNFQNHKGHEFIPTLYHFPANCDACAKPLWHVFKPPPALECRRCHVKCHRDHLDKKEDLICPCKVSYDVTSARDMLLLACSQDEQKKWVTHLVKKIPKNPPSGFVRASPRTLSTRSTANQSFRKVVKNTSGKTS
# Chain of Platelet-derived growth factor receptor alpha (Homo sapiens), P16234 [D842V] (P16234 whole entry D842V, the tested form may be a part): as the sequence (P16234 whole entry V561D, the tested form may be a part) above, with D561V, D842V counted along it
# Chain of Homeodomain-interacting protein kinase 4 (Homo sapiens) (Q8NE63 whole entry, the tested form may be a part): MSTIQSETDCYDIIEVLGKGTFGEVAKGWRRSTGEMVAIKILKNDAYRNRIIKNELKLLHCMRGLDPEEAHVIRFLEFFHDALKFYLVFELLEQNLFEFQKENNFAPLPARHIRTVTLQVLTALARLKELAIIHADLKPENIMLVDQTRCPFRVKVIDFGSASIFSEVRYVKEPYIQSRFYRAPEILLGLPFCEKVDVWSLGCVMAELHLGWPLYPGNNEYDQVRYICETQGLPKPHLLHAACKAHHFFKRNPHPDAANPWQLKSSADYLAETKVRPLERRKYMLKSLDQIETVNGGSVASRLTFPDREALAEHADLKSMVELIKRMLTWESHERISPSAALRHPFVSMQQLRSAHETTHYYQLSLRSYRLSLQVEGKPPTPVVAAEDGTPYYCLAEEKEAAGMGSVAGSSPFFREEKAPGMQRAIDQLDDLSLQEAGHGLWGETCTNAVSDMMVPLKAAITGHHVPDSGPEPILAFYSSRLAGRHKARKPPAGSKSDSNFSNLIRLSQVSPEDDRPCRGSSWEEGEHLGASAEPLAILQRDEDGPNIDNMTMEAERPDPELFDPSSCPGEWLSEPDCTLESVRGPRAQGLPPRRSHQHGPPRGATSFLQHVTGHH
# Chain of Aurora kinase B (Homo sapiens) (Q96GD4 whole entry): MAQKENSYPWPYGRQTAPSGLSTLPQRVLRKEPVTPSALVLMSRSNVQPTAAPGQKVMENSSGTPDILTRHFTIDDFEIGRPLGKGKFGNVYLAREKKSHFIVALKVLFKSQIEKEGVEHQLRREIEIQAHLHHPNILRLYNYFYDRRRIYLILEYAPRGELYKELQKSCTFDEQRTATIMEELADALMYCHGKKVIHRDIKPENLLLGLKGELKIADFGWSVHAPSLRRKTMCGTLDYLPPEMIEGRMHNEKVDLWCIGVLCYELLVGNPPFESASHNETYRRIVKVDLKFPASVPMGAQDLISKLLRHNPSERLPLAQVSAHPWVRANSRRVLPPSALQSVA
smiles,measurement,setting,value
CNC(=O)Nc1ccc(-c2nc(N3CC4CCC(C3)O4)c3cnn(C4CCC5(CC4)OCCO5)c3n2)cc1,inhibition,[1],6%
same,inhibition,[2],3%
same,inhibition,[3],13%
same,Activity,MDA-MB-361,35%
same,inhibition,mTORC2 (Homo sapiens) [4],Active
same,inhibition,[5],3%
same,inhibition,[6],3%
same,inhibition,[7],7%
same,inhibition,[8],4%
same,inhibition,[9],1%
same,inhibition,[10],3%
same,inhibition,[11],0%
same,inhibition,[12],1%
same,inhibition,[13],7%
same,inhibition,[14],3%
same,inhibition,Rat1,Active
same,IC50,A549,102 nM
same,Activity,U-87 MG,Dose-Dependent Effect
same,Activity,A498,Active
same,inhibition,mTORC2 (Homo sapiens) [15],Active
same,inhibition,[16],-8%
same,inhibition,[17],14%
same,inhibition,[18],7%
same,inhibition,[19],4%
same,IC50,NCI-H157,145 nM
same,inhibition,[20],1%
